# Measurements: patent US20230123334A1, “AMINO LIPID COMPOUND, PREPARATION METHOD THEREFOR, AND APPLICATION THEREOF” (SHENZHEN SHENXIN BIOTECHNOLOGY CO., LTD., priority 2020, published 2023)
# System: HEK293 cells
# Assay: Preliminary screening as DNA vectors, GFP transfection of HEK293 cells
# Format: cell-based
# Details: amino lipid/DOPE liposome with 75 ng plasmid DNA (psin-EGFP-IRES-Puro); number of GFP-expressing cells divided by total nuclei (Hoechst)
# Method in brief: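 HEK293 cells in DMEM/10% FBS transfected with 75 ng EGFP plasmid per well complexed with amino lipid/DOPE liposomes in pH 5.6 sodium acetate. Hoechst nuclear stain added 20-24 h post-transfection, then cells cultured another 20-24 h. Confocal imaging gives GFP-positive cells as % of total nuclei.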
row,Compound,Absolute DNA transfection efficiency in HEK293 cells
1,CCCCCCCCCCCCCCSc1nc(NCCCN2CCOCC2)nc(N(CCCCCCCCCCCC)CCCCCCCCCCCC)n1 [S14^2N12 D8],0.0%
2,CCCCCCCCCCCCCCSc1nc(NCCCCCCCCCCCCC)nc(NCCN2CCOCC2)n1 [S14N13 D2],0.0%
3,CCCCCCCCCCCCCCSc1nc(NCCCCCCCCCCCC)nc(NCCN2CCCCC2)n1 [S14N12 D4],3.8%
4,CCCCCCCCCCCCNc1nc(NCCN2CCOCC2)nc(SCCCCCCCCCCCC)n1 [S12N12 D2],0.0%
5,CCCCCCCCCCCCN(CCCCCCCCCCCC)c1nc(NCC2CCN(C)CC2)nc(SCCCCCC)n1 [S6^2N12 D10],0.0%
6,CCCCCCCCCCCCCCCCSc1nc(NCCCCCC)nc(NCCCN(C)C)n1 [S16N6 D6],24.1%
7,CCCCCCCCCCCNc1nc(NCCCN2CCN(C)CC2)nc(SCCCCCCC)n1 [S7N11 D9],43.9%
8,CCCCCCCCCCCCCCSc1nc(NCCN(CC)CC)nc(N(CCCCCCCCCCCC)CCCCCCCCCCCC)n1 [S14^2N12 D7],0.1%
9,CCCCCCCCCCCCCCCSc1nc(NCC2CCN(C)CC2)nc(N(CCCCCCCCCCCC)CCCCCCCCCCCC)n1 [S15^2N12 D10],1.0%
10,CCCCCCCCCCCCCCCCCCSc1nc(NCCN2CCCC2)nc(N(CCCCCCCCCCCC)CCCCCCCCCCCC)n1 [S18^2N12 D3],0.2%
11,CCCCCCCCCCCNc1nc(NCCCN2CCN(C)CC2)nc(SCCCCCCCC)n1 [S8N11 D9],63.6%
12,CCCCCCCCCCCCCNc1nc(NCCCN2CCN(C)CC2)nc(SCCCCCCCCC)n1 [S9N13 D9],19.9%
13,CCCCCCCCCCCCCCCCCCNc1nc(NCCN(CC)CC)nc(SCCCCCCCCCCCCCCC)n1 [S15N18 D7],0.9%
14,CCCCCCCCCCCCCNc1nc(NCCN2CCN(C)CC2)nc(SCCCCCCCCCCC)n1 [S11N13 D5],8.4%
15,CCCCCCCCCCCCCCCCCCSc1nc(NCCN2CCCCC2)nc(N(CCCCCCCCCCCC)CCCCCCCCCCCC)n1 [S18^2N12 D4],0.0%
16,CCCCCCCCCCCCCCCSc1nc(NCCCN2CCN(C)CC2)nc(SCCCCCC)n1 [S6S15 D9],8.3%
17,CCCCCCCCCCCCCCCSc1nc(NCCCCCCCCCCCCC)nc(NCCCN2CCOCC2)n1 [S15N13 D8],0.2%
18,CCCCCCCCCCCSc1nc(NCCCCCCCC)nc(NCC2CCN(C)CC2)n1 [S11N8 D10],33.4%
19,CCCCCCCCCCCCCCCCCCSc1nc(NCCCCCCCCCCCCCCC)nc(NCCN(CC)CC)n1 [S18N15 D7],0.1%
20,CCCCCCCCCCCCSc1nc(NCCCCCCCCC)nc(NCCCN2CCN(C)CC2)n1 [S12N9 D9],10.9%
21,CCCCCCCCCCCCCCCCSc1nc(NCCCCCCCCCCCCCCC)nc(NCCN(CC)CC)n1 [S16N15 D7],0.6%
22,CCCCCCCCCCCCCCSc1nc(NCCCCCCCCCCCCC)nc(NCCN(C)C)n1 [S14N13 D1],1.1%
23,CCCCCCCCCCCCCCCNc1nc(NCCN(C)C)nc(SCCCCCCCCC)n1 [S9N15 D1],29.8%
24,CCCCCCCCCCCCCCSc1nc(NCCCCCCCC)nc(NCCN(C)C)n1 [S14N8 D1],8.9%

row,Compound,Absolute DNA transfection efficiency in HEK293 cells
1,CCCCCCCCCCCCCNc1nc(NCCN(CC)CC)nc(SCCCCCC)n1 [S6N13 D7],2.0%
2,CCCCCCCCCCCCCCCCCCSc1nc(NCCCCCCCCCCCCC)nc(NCCN(C)C)n1 [S18N13 D1],1.3%
3,CCCCCCCCCCCCCCSc1nc(NCCCN2CCOCC2)nc(SCCCCCC)n1 [S6S14 D8],2.3%
4,CCCCCCCCCCCCCCCSc1nc(NCCN(C)C)nc(SCCCCCC)n1 [S6S15 D1],5.5%
5,CCCCCCCCCSc1nc(NCCCCCC)nc(NCCCN2CCOCC2)n1 [S9N6 D8],7.8%
6,CCCCCCCCCCCSc1nc(NCCCCCC)nc(NCCN2CCCC2)n1 [S11N6 D3],8.3%
7,CCCCCCCCCCCCCCCCSc1nc(NCCCCCCCCC)nc(NCC2CCN(C)CC2)n1 [S16N9 D10],6.9%
8,CCCCCCCCCCCSc1nc(NCCCCCC)nc(NCC2CCN(C)CC2)n1 [S11N6 D10],8.8%
9,CCCCCCCCCCCCCCCCSc1nc(NCCCCCCCCCCCCC)nc(NCCN2CCN(C)CC2)n1 [S16N13 D5],0.8%
10,CCCCCCCCCCCCCCCCCCSc1nc(NCCCN2CCN(C)CC2)nc(SCCCCCC)n1 [S6S18 D9],8.7%
11,CCCCCCSc1nc(NCCN(CC)CC)nc(SCCCCCC)n1 [S6S6 D7],23.0%
12,CCCCCCCCCCCCCCCCCCSc1nc(NCCCCCCC)nc(NCCN2CCOCC2)n1 [S18N7 D2],3.2%
13,CCCCCCCCCCCCCCCNc1nc(NCCN2CCCC2)nc(SCCCCCCCCC)n1 [S9N15 D3],22.7%
14,CCCCCCCCCCCCCCCSc1nc(NCCCCCCCCCCC)nc(NCCCN2CCN(C)CC2)n1 [S15N11 D9],11.9%
15,CCCCCCCCCCSc1nc(NCCCCCCCC)nc(NCCN(CC)CC)n1 [S10N8 D7],2.0%
16,CCCCCCCCCCCCCCSc1nc(NCCCN(C)C)nc(SCCCCCCC)n1 [S7S14 D6],4.4%
17,CCCCCCCCCCCCCCCCCCSc1nc(NCCCCCCCCC)nc(NCCN(CC)CC)n1 [S18N9 D7],6.7%
18,CCCCCCCCCCCSc1nc(NCCCCCCCCC)nc(NCC2CCN(C)CC2)n1 [S11N9 D10],32.5%
19,CCCCCCCCCCCCCCCCSc1nc(NCCCCCCCCC)nc(NCCN(CC)CC)n1 [S16N9 D7],5.3%
20,CCCCCCCCCCSc1nc(NCCN(C)C)nc(SCCCCCC)n1 [S6S10 D1],3.2%
21,CCCCCCCCCCCCCCCCSc1nc(NCCN2CCOCC2)nc(SCCCCCC)n1 [S6S16 D2],24.0%
22,CCCCCCCCCCSc1nc(NCCN2CCOCC2)nc(SCCCCCCC)n1 [S7S10 D2],23.6%
23,CCCCCCCCCCCCCNc1nc(NCCCN2CCOCC2)nc(SCCCCCCC)n1 [S7N13 D8],17.3%
24,CCCCCCCCCCCCCCCSc1nc(NCCCCCC)nc(NCCN2CCCCC2)n1 [S15N6 D4],21.6%

row,Compound,Absolute DNA transfection efficiency in HEK293 cells
1,CCCCCCCCCNc1nc(NCCN2CCCCC2)nc(SCCCCCCCC)n1 [S8N9 D4],15.5%
2,CCCCCCCCCCCCCCCCCCNc1nc(NCCN2CCN(C)CC2)nc(SCCCCCCC)n1 [S7N18 D5],8.2%
3,CCCCCCCCCSc1nc(NCCN2CCCC2)nc(SCCCCCCC)n1 [S7S9 D3],21.5%
4,CCCCCCCCCCCCNc1nc(NCCN2CCOCC2)nc(SCCCCCCC)n1 [S7N12 D2],25.6%
5,CCCCCCCCCCCCCCCCSc1nc(NCCCCCC)nc(NCCCN2CCN(C)CC2)n1 [S16N6 D9],9.6%
6,CCCCCCCCCCCSc1nc(NCCCCCCC)nc(NCCN(CC)CC)n1 [S11N7 D7],11.6%
7,CCCCCCCCCCCCSc1nc(NCCCCCCC)nc(NCCCN(C)C)n1 [S12N7 D6],11.2%
8,CCCCCCCCCCCCCCCCCCNc1nc(NCCCN2CCN(C)CC2)nc(SCCCCCCCCCCCCCCC)n1 [S15N18 D9],0.4%
9,CCCCCCCCCCCCN(CCCCCCCCCCCC)c1nc(NCCN2CCOCC2)nc(SCCCCCCCCC)n1 [S9^2N12 D2],0.0%
10,CCCCCCCCCCCCCCCSc1nc(NCCCCCC)nc(NCCCN2CCN(C)CC2)n1 [S15N6 D9],15.4%
11,CCCCCCCCCCCCCCCSc1nc(NCCCCCC)nc(NCCN2CCCC2)n1 [S15N6 D3],32.4%
12,CCCCCCCCCCCCN(CCCCCCCCCCCC)c1nc(NCCN2CCN(C)CC2)nc(SCCCCCCCC)n1 [S8^2N12 D5],0.8%
13,CCCCCCCCCCCCCCCCCCSc1nc(NCCCCCCC)nc(NCC2CCN(C)CC2)n1 [S18N7 D10],13.5%
14,CCCCCCCCCCCCCCCCCCSc1nc(NCCCCCCCC)nc(NCCCN2CCOCC2)n1 [S18N8 D8],2.0%
15,CCCCCCCCCNc1nc(NCCN2CCCC2)nc(SCCCCCCC)n1 [S7N9 D3],12.3%
16,CCCCCCCCCCCCCCCCSc1nc(NCCCN(C)C)nc(N(CCCCCCCCCCCC)CCCCCCCCCCCC)n1 [S16^2N12 D6],0.0%
17,CCCCCCCCCCCCCCCSc1nc(NCCCCCCCCC)nc(NCCN2CCCCC2)n1 [S15N9 D4],4.5%
18,CCCCCCCCCCCCN(CCCCCCCCCCCC)c1nc(NCCCN2CCN(C)CC2)nc(SCCCCCCCC)n1 [S8^2N12 D9],0.7%
19,CCCCCCCCCCCCCCCNc1nc(NCCN(CC)CC)nc(SCCCCCCCC)n1 [S8N15 D7],2.2%
20,CCCCCCCCNc1nc(NCCCN(C)C)nc(SCCCCCC)n1 [S6N8 D6],0.6%
21,CCCCCCCCCCCCCCCCSc1nc(NCCCCCCCCCCC)nc(NCCN(C)C)n1 [S16N11 D1],17.2%
22,CCCCCCCCCCCCCCCNc1nc(NCCCN2CCOCC2)nc(SCCCCCC)n1 [S6N15 D8],3.3%
23,CCCCCCCCCCCCCCCSc1nc(NCCCCCCCCCCCC)nc(NCCCN(C)C)n1 [S15N12 D6],6.4%
